Measured values taken from PubChem BioAssay AID1963976 (Molecular Pharmacology Branch, DTP, NCI, 2024).

System: 435261-313-R-J1-PDC tumor spheroid viability
Experiment: Anticancer human tumor 435261-313-R-J1-PDC patient-derived colon adenocarcinoma cell line growth inhibition [PI3K]
Details: spheroids with HUVEC and MSC; for IC50: curve of first compound; for viability, T/C: stronger effect = lower value
How it was run: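 Combination activity was assessed by viability in multicellular tumor spheroids carrying HUVEC and MSC components. Agents were tested with PI3K inhibitors from a Cmax-based top dose (or 10 microM) downward in half-log increments.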

[1] = second compound 0.0316 µM, first compound 0.0316 µM
[2] = second compound 0.0316 µM, first compound 0.1 µM
[3] = second compound 0.1 µM, first compound 0.0316 µM
[4] = second compound 0.1 µM, first compound 0.1 µM
[5] = second compound 0.316 µM, first compound 0.0316 µM
[6] = second compound 0.316 µM, first compound 0.1 µM
[7] = second compound 1 µM, first compound 0.0316 µM
[8] = second compound 1 µM, first compound 0.1 µM
[9] = second compound 3.16 µM, first compound 0.0316 µM
[10] = second compound 3.16 µM, first compound 0.1 µM
[11] = second compound 10 µM, first compound 0.0316 µM
[12] = second compound 10 µM, first compound 0.1 µM
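Note: spheroids exposed to compounds for 7 days.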

CC(=O)c1c(C)c2cnc(Nc3ccc(N4CCNCC4)cn3)nc2n(C2CCCC2)c1=O + CC(Nc1ncnc2nc[nH]c12)c1cc2cccc(Cl)c2c(=O)n1-c1ccccc1
IC50 (second compound 0.0316 µM): > 100 nM
IC50 (second compound 0.1 µM): > 100 nM
IC50 (second compound 0.316 µM): > 100 nM
IC50 (second compound 1 µM): > 100 nM
IC50 (second compound 3.16 µM): > 100 nM
IC50 (second compound 10 µM): 34.5 nM
viability, T/C (second compound 0.0316 µM, first compound 0.000316 µM): 101%
viability, T/C (second compound 0.0316 µM, first compound 0.001 µM): 125%
viability, T/C (second compound 0.0316 µM, first compound 0.00316 µM): 74.8%
viability, T/C (second compound 0.0316 µM, first compound 0.01 µM): 94%
viability, T/C [1]: 107%
viability, T/C [2]: 84.1%
viability, T/C (second compound 0.1 µM, first compound 0.000316 µM): 77.4%
viability, T/C (second compound 0.1 µM, first compound 0.001 µM): 84%
viability, T/C (second compound 0.1 µM, first compound 0.00316 µM): 94.5%
viability, T/C (second compound 0.1 µM, first compound 0.01 µM): 101%
viability, T/C [3]: 106%
viability, T/C [4]: 64.9%
viability, T/C (second compound 0.316 µM, first compound 0.000316 µM): 105%
viability, T/C (second compound 0.316 µM, first compound 0.001 µM): 72.7%
viability, T/C (second compound 0.316 µM, first compound 0.00316 µM): 101%
viability, T/C (second compound 0.316 µM, first compound 0.01 µM): 90.1%
viability, T/C [5]: 119%
viability, T/C [6]: 69%
viability, T/C (second compound 1 µM, first compound 0.000316 µM): 81.7%
viability, T/C (second compound 1 µM, first compound 0.001 µM): 57.1%
viability, T/C (second compound 1 µM, first compound 0.00316 µM): 56.6%
viability, T/C (second compound 1 µM, first compound 0.01 µM): 92.3%
viability, T/C [7]: 86.6%
viability, T/C [8]: 62%
viability, T/C (second compound 3.16 µM, first compound 0.000316 µM): 52.9%
viability, T/C (second compound 3.16 µM, first compound 0.001 µM): 79%
viability, T/C (second compound 3.16 µM, first compound 0.00316 µM): 40.8%
viability, T/C (second compound 3.16 µM, first compound 0.01 µM): 63.1%
viability, T/C [9]: 63.3%
viability, T/C [10]: 41.3%
viability, T/C (second compound 10 µM, first compound 0.000316 µM): 44.5%
viability, T/C (second compound 10 µM, first compound 0.001 µM): 54%
viability, T/C (second compound 10 µM, first compound 0.00316 µM): 48.2%
viability, T/C (second compound 10 µM, first compound 0.01 µM): 56.1%
viability, T/C [11]: 54.6%
viability, T/C [12]: 32.2%

CC1(C)CCC(CN2CCN(c3ccc(C(=O)NS(=O)(=O)c4ccc(NCC5CCOCC5)c([N+](=O)[O-])c4)c(Oc4cnc5[nH]ccc5c4)c3)CC2)=C(c2ccc(Cl)cc2)C1 + CC(Nc1ncnc2nc[nH]c12)c1cc2cccc(Cl)c2c(=O)n1-c1ccccc1
IC50 (second compound 0.0316 µM): > 10000 nM
IC50 (second compound 0.1 µM): > 10000 nM
IC50 (second compound 0.316 µM): > 10000 nM
IC50 (second compound 1 µM): > 10000 nM
IC50 (second compound 3.16 µM): > 10000 nM
IC50 (second compound 10 µM): < 31.6 nM
viability, T/C [1]: 79.5%
viability, T/C [2]: 92%
viability, T/C (second compound 0.0316 µM, first compound 0.316 µM): 71.5%
viability, T/C (second compound 0.0316 µM, first compound 1 µM): 80%
viability, T/C (second compound 0.0316 µM, first compound 3.16 µM): 86.9%
viability, T/C (second compound 0.0316 µM, first compound 10 µM): 95%
viability, T/C [3]: 66.1%
viability, T/C [4]: 78.2%
viability, T/C (second compound 0.1 µM, first compound 0.316 µM): 81.3%
viability, T/C (second compound 0.1 µM, first compound 1 µM): 71.6%
viability, T/C (second compound 0.1 µM, first compound 3.16 µM): 94.5%
viability, T/C (second compound 0.1 µM, first compound 10 µM): 84.9%
viability, T/C [5]: 77.5%
viability, T/C [6]: 100%
viability, T/C (second compound 0.316 µM, first compound 0.316 µM): 87.2%
viability, T/C (second compound 0.316 µM, first compound 1 µM): 77.3%
viability, T/C (second compound 0.316 µM, first compound 3.16 µM): 77.4%
viability, T/C (second compound 0.316 µM, first compound 10 µM): 52.2%
viability, T/C [7]: 87.6%
viability, T/C [8]: 66.1%
viability, T/C (second compound 1 µM, first compound 0.316 µM): 66.4%
viability, T/C (second compound 1 µM, first compound 1 µM): 64%
viability, T/C (second compound 1 µM, first compound 3.16 µM): 73.2%
viability, T/C (second compound 1 µM, first compound 10 µM): 46.6%
viability, T/C [9]: 65.3%
viability, T/C [10]: 72.6%
viability, T/C (second compound 3.16 µM, first compound 0.316 µM): 87.2%
viability, T/C (second compound 3.16 µM, first compound 1 µM): 72.3%
viability, T/C (second compound 3.16 µM, first compound 3.16 µM): 77%
viability, T/C (second compound 3.16 µM, first compound 10 µM): 76.7%
viability, T/C [11]: 41.6%
viability, T/C [12]: 60.8%
viability, T/C (second compound 10 µM, first compound 0.316 µM): 32.7%
viability, T/C (second compound 10 µM, first compound 1 µM): 62.9%
viability, T/C (second compound 10 µM, first compound 3.16 µM): 50.3%
viability, T/C (second compound 10 µM, first compound 10 µM): 43.9%
